Measured values taken from patent US20150025085A1, “Iron Chelators And Uses Thereof” (Varinel Inc., priority 2012, published 2015).
Read-outs that look alike come from different tables or passages of the source.

Columns and labels:
[1] = tested on: clinical isolates of bacterial strains of A. baumannii; experiment: MIC by CLSI microdilution in CAMHB media; format: cell-based; details: Acinetobacter baumannii, 24 h
Description: (§1) The minimal inhibitory concentration (MIC) of compound 4 was determined against standard strains of MDR bacteria and clinical isolates according to the guidelines of the Clinical and Laboratory Standards Institute (CLSI).
(§2) Individual MICs were determined following the microdilution method recommended by CLSI in cationic-adjusted Mueller-Hinton Broth (CAMHB), or M9 media. The MIC was defined as the lowest drug concentration that caused 100% inhibition of visible bacterial growth after 24 hours incubation. Tests were performed in triplicate. MIC of Compound 4 were determined for nosocomial ESKAPE pathogens (Enterococcus faecium, Staphylococcus aureus, Klebsiella pneumoniae, Acinetobacter baumannii, Pseudomonas aeruginosa, and Enterobacter species).
(§3) Tables l and 2 show the MIC of compound 4 determined in two different media for clinical isolates of bacterial strains of A. baumannii (AB) obtained from the Multidrug-resistant Organism Repository & Surveillance Network, USA.

bacterial infections = details: described in PCT/US2012/023377 (WO 2012/106364); cited from earlier work
A. baumannii strain 5711 = experiment: Growth curves (OD600) in CAMHB medium; format: cell-based, Acinetobacter baumannii; details: various concentrations, dose-responsive
Text: (§4) It should be noted that the inhibition occurred in a dose-responsive manner.

[2] = tested on: clinical isolates of bacterial strains of A. baumannii; experiment: MIC by CLSI microdilution in RPMI 1640 (low iron) media; format: cell-based, Acinetobacter baumannii; design: key to MIC of compound 4: NG = no growth; details: for MIC: Acinetobacter baumannii
Description: as §1
as §2, with “Individual MICs were determined following the microdilution method recommended by CLSI in cationic-adjusted Mueller-Hinton Broth (CAMHB), or M9 media.” left out
as §3

[3] = Stability in aqueous solution; format: physicochemical
Text: as §4

6-OHDA lesioned rats = details: cited from earlier work; for activity (neuroprotection) against 6-OHDA in an animal model of Parkinson's disease: prior publications, Ben Shachar et al. 2004
[4] = prior publications (WO 00/74664; WO 2004/041151); cited from earlier work
[5] = tested on: lactacystin-lesioned mice; details: 5 mg/kg once a day i.p., 7 days before or after lactacystin microinjection; Zhu et al. 2007; cited from earlier work
[6] = strain AB3638, read-out: MIC of compound 4
[7] = strain AB3785, read-out: MIC of compound 4
[8] = strain AB3806, read-out: MIC of compound 4
[9] = strain AB3917, read-out: MIC of compound 4
[10] = strain AB4025, read-out: MIC of compound 4
[11] = strain AB4026, read-out: MIC of compound 4
[12] = strain AB4027, read-out: MIC of compound 4
[13] = strain AB4052, read-out: MIC of compound 4
[14] = strain AB4269, read-out: MIC of compound 4
[15] = strain AB4448, read-out: MIC of compound 4
[16] = strain AB4456, read-out: MIC of compound 4
[17] = strain AB4490, read-out: MIC of compound 4
[18] = strain AB4498, read-out: MIC of compound 4
[19] = strain AB4795, read-out: MIC of compound 4
[20] = strain AB4857, read-out: MIC of compound 4
[21] = strain AB4878, read-out: MIC of compound 4
[22] = strain AB4932, read-out: MIC of compound 4
[23] = strain AB4957, read-out: MIC of compound 4
[24] = strain AB4991, read-out: MIC of compound 4
[25] = strain AB5001, read-out: MIC of compound 4
[26] = strain AB5075, read-out: MIC of compound 4
[27] = strain AB5197, read-out: MIC of compound 4
[28] = strain AB5256, read-out: MIC of compound 4
[29] = strain AB5674, read-out: MIC of compound 4
[30] = strain AB5711, read-out: MIC of compound 4
[31] = rats, Ben Shachar et al., Neuropharmacology 46 (2004) 254-263

OCCN1CCN(CCc2ccc(O)c3ncccc23)CC1 [Compound 4, 5-(2-(4-(2-hydroxyethyl)piperazin-1-yl)ethyl)-8-quinolinol]
MIC ([1]; strain AB967, read-out: MIC of compound 4): 500 µg/mL | MIC ([1]; strain AB2828, read-out: MIC of compound 4): 500 µg/mL | MIC ([1]; strain AB3340, read-out: MIC of compound 4): 500 µg/mL | MIC ([1]; strain AB3560, read-out: MIC of compound 4): 500 µg/mL | MIC [1, 6]: 500 µg/mL | MIC [1, 7]: 500 µg/mL | MIC [1, 8]: 1000 µg/mL | MIC [1, 9]: 500 µg/mL | MIC ([1]; strain AB3927, read-out: MIC of compound 4): 500 µg/mL | MIC [1, 10]: 500 µg/mL | MIC [1, 11]: 500 µg/mL | MIC [1, 12]: 500 µg/mL | MIC [1, 13]: 1000 µg/mL | MIC [1, 14]: 500 µg/mL | MIC [1, 15]: 500 µg/mL | MIC [1, 16]: 500 µg/mL | MIC [1, 17]: 500 µg/mL | MIC [1, 18]: 500 µg/mL | MIC [1, 19]: 500 µg/mL | MIC [1, 20]: 500 µg/mL | MIC [1, 21]: 500 µg/mL | MIC [1, 22]: 500 µg/mL | MIC [1, 23]: 500 µg/mL | MIC [1, 24]: 500 µg/mL | MIC [1, 25]: 500 µg/mL | MIC [1, 26]: 500 µg/mL | MIC [1, 27]: 500 µg/mL | MIC [1, 28]: 500 µg/mL | MIC [1, 29]: 500 µg/mL | MIC [1, 30]: 500 µg/mL | antibacterial activity (bacterial infections): antibacterial activity | OD600 in growth curves (inhibition of growth) (A. baumannii strain 5711): dramatically reduced | MIC [2, 6]: 64 µg/mL | MIC [2, 7]: 32 µg/mL | MIC [2, 8]: 32 µg/mL | MIC [2, 9]: 32 µg/mL | MIC [2, 10]: 32 µg/mL | MIC [2, 11]: 32 µg/mL | MIC [2, 12]: 32 µg/mL | MIC [2, 13]: 64 µg/mL | MIC [2, 14]: 32 µg/mL | MIC [2, 15]: 64 µg/mL | MIC [2, 16]: 32 µg/mL | MIC [2, 17]: 32 µg/mL | MIC [2, 18]: 64 µg/mL | MIC [2, 19]: 32 µg/mL | MIC [2, 20]: 64 µg/mL | MIC [2, 21]: 64 µg/mL | MIC [2, 22]: 125 µg/mL | MIC [2, 23]: 125 µg/mL | MIC [2, 24]: 8 µg/mL | MIC [2, 25]: 32 µg/mL | MIC [2, 26]: 64 µg/mL | MIC [2, 27]: 32 µg/mL | MIC [2, 28]: 125 µg/mL | MIC [2, 29]: 32 µg/mL | MIC [2, 30]: 64 µg/mL | MIC of compound 4 ([2]; strain AB967): NG | MIC of compound 4 ([2]; strain AB2828): NG | MIC of compound 4 ([2]; strain AB3340): NG | MIC of compound 4 ([2]; strain AB3560): NG | MIC of compound 4 ([2]; strain AB3927): NG | stability in aqueous solution [3]: highly stable

C#CCN(C)Cc1ccc(O)c2ncccc12 [M30]
activity (neuroprotection) against 6-OHDA in an animal model of Parkinson's disease (6-OHDA lesioned rats): active | ability to cross the BBB [4]: able to cross the BBB

OCCN1CCN(Cc2ccc(O)c3ncccc23)CC1 [VK28, 5-[4-(2-hydroxyethyl)piperazin-1-ylmethyl]-8-hydroxyquinoline]
behavioral performances [5]: significantly improved | lactacystin-induced DA neuron loss in SN [5]: attenuated | lactacystin-induced iron accumulation in SN [5]: attenuated | lactacystin-induced microglial activation in SN [5]: attenuated | lactacystin-induced proteasomal inhibition in SN [5]: attenuated | antibacterial activity (bacterial infections): antibacterial activity | activity (neuroprotection) against 6-OHDA in an animal model of Parkinson's disease (6-OHDA lesioned rats): active | activity (neuroprotection) against 6-OHDA in an animal model of Parkinson's disease (6-OHDA lesioned rats; listed as Vk-28): neuroprotection | basal striatal tissue monoamine concentrations (6-OHDA lesioned rats; [31]): no effect | striatal 5-HT, 5-HIAA and NE concentrations (6-OHDA lesioned rats; [31]): not be affected | ability to cross the BBB [4]: able to cross the BBB
